ChEMBL document CHEMBL5257035, “Nucleoside Derived Antibiotics to Fight Microbial Drug Resistance: New Utilities for an Established Class of Drugs?” (J Med Chem, 2016)
Values after ≈ are worked out from the molar mass of the structure shown. Blank lines part the entries; values can stand above or below the molecule they belong to.

Experiments:
[1] = Inhibition of Bacillus stearothermophilus tyrosyl tRNA synthetase; parameters: species or system Geobacillus stearothermophilus
[2] = molecular target: Phospho-N-acetylmuramoyl-pentapeptide-transferase (Staphylococcus aureus, UniProt P0C1R8); test: Inhibition of Staphylococcus aureus MraY
[3] = test system: Mycolicibacterium smegmatis; test: Antibacterial activity against Mycobacterium smegmatis ATCC 607 assessed as bacterial growth inhibition; type: functional
[4] = molecular target: Proline--tRNA ligase (Escherichia coli, UniProt P16659); test: Binding affinity to Escherichia coli K12 Prolyl-tRNA synthetase
[5] = molecular target: Phospho-N-acetylmuramoyl-pentapeptide-transferase (Bacillus subtilis (strain 168)) (UniProt Q03521); test: Inhibition of Bacillus subtilis MraY at 11.4 uM relative to control
[6] = test system: Candida albicans; test: Antifungal activity against Candida albicans ATCC 10231 assessed as reduction in fungal growth incubated for 12 hrs by broth microdilution method; type: functional
[7] = test system: Candida albicans; test: […] activity against Candida albicans assessed as […] measured after 24 hrs by microtitre dilution method; type: functional
[8] = test system: Staphylococcus chromogenes; test: Antibacterial activity against wild type Staphylococcus chromogenes 7100 assessed as bacterial growth inhibition; type: functional
[9] = test system: Candida albicans; test: Antifungal activity against Candida albicans assessed as inhibition of fungal growth; type: functional
[10] = test system: Cutaneotrichosporon cutaneum; test: Antifungal activity against Trichosporon cutaneum 3071 assessed as reduction in microbial growth inhibition for 48 hrs by broth microdilution assay; type: functional
[11] = test system: Candida albicans; test: Antifungal activity against Candida albicans B-311 assessed as reduction fungal growth incubated for 16 hrs by microbroth dilution method; type: functional
[12] = test system: Candida albicans; test: Antifungal activity against Candida albicans SC5314 assessed as reduction in microbial growth inhibition incubated for 48 hrs by broth microdilution assay; type: functional
[13] = Inhibition of Candida albicans SC5314 chitin synthase using UDP-GlcNAc as substrate incubated for 1 hr
[14] = test system: Pseudomonas aeruginosa; test: Antibacterial activity against Pseudomonas aeruginosa assessed as inhibition of bacterial growth incubated for 24 hrs by broth microdilution method; type: functional
[15] = molecular target: Phospho-N-acetylmuramoyl-pentapeptide-transferase (Bacillus subtilis (strain 168), UniProt Q03521); test: Inhibition of Bacillus subtilis MraY
[16] = test system: Pseudomonas aeruginosa; test: Antibacterial activity against Pseudomonas aeruginosa assessed as bacterial growth reduction; type: functional
[17] = test system: Pseudomonas aeruginosa; test: Antibacterial activity against Pseudomonas aeruginosa assessed as reduction in bacterial growth; type: functional
[18] = test system: Pseudomonas aeruginosa; test: Antimicrobial activity against Pseudomonas aeruginosa ATCC 27853 assessed as inhibition of microbial growth
[19] = test system: Mycobacterium avium; test: Antimycobacterial activity against Mycobacterium avium ATCC 25291 assessed as reduction in microbial growth; type: functional
[20] = test system: Escherichia coli; test: Antibacterial activity against Escherichia coli K12 assessed as bacterial growth inhibition by broth microdilution method; type: functional
[21] = molecular target: Phospho-N-acetylmuramoyl-pentapeptide-transferase (Bacillus subtilis (strain 168)) (UniProt Q03521); test: Inhibition of Bacillus subtilis MraY at 2.3 uM relative to control
[22] = test system: Pseudomonas aeruginosa; test: Antibacterial activity against Pseudomonas aeruginosa infected in mouse; type: functional
[23] = test system: Pseudomonas aeruginosa; test: Antibacterial activity against Pseudomonas aeruginosa assessed as bacterial growth inhibition; type: functional

Proline--tRNA ligase, sequence (P16659 whole entry): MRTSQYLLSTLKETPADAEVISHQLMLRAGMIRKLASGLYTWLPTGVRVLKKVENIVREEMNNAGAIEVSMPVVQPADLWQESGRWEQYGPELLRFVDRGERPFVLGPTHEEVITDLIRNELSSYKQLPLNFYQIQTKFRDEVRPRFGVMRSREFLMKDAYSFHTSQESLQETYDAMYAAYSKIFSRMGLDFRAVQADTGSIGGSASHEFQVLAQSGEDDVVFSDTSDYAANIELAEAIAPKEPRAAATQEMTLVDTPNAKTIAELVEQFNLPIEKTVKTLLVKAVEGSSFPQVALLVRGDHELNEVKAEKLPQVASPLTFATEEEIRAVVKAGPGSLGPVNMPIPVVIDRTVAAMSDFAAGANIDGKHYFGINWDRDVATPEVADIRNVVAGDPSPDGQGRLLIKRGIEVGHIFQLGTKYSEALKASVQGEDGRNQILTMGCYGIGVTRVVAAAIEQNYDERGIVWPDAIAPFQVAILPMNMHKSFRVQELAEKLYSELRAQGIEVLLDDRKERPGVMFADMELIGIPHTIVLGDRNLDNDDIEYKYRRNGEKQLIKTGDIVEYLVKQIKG
Phospho-N-acetylmuramoyl-pentapeptide-transferase (Bacillus subtilis (strain 168)), sequence (Q03521 whole entry): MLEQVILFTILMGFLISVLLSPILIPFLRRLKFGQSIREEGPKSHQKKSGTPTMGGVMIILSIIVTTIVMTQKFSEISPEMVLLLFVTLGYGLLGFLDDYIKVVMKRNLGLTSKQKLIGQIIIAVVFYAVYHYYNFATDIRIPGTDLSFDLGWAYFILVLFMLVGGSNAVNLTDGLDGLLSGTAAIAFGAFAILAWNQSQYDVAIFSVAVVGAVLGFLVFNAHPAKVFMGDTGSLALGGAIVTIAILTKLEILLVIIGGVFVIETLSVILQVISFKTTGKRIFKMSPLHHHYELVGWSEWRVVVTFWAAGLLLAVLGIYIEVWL
Phospho-N-acetylmuramoyl-pentapeptide-transferase (Bacillus subtilis (strain 168), UniProt Q03521), sequence (Q03521 whole entry): as above

SMILES: C[C@@H]([C@H](N)C(=O)N[C@H](C(=O)O)[C@H]1OC(n2cc(C=O)nc2O)[C@H](O)[C@@H]1O)[C@H](O)c1ccc(O)cn1 (stereo partly specified) [NIKKOMYCIN X]
MIC [7]: 0.5 µg/mL (≈ 1.01 µM) | MIC [8]: 2 µg/mL (≈ 4.04 µM) | MIC [9]: 2 µg/mL (≈ 4.04 µM) | MIC [10]: 64 µg/mL | MIC [11]: 2.5 µg/mL (≈ 5.05 µM) | MIC [12]: 16 µg/mL | IC50 [13]: 0.1 µg/mL (≈ 0.202 µM)

SMILES: Nc1ncnc2c1ncn2[C@@H]1O[C@H](COP(=O)(O)OCC(N)Cc2ccc(O)cc2)[C@@H](O)[C@H]1O (stereo partly specified)
Ki [1]: 11 nM

SMILES: C[C@H](NC(=O)N[C@@H](Cc1cccc(Cl)c1)C(=O)O)C(=O)N[C@H](C(=O)N/C=C1/C[C@@H](O)[C@H](n2ccc(=O)[nH]c2=O)O1)[C@H](C)NC(=O)[C@@H](N)Cc1ccc(O)cc1
MIC [14]: 64 µg/mL (≈ 81.5 µM)

SMILES: C[C@@H](NC(=O)N[C@@H](Cc1c[nH]c2ccccc12)C(=O)O)C(=O)N[C@H](C(=O)N/C=C1/C[C@@H](O)[C@H](n2ccc(=O)[nH]c2=O)O1)[C@H](C)N(C)C(=O)[C@@H](N)CN
IC50 [15]: 22 nM | MIC [16]: 16 µg/mL (≈ 22 µM) | MIC [17]: 32 µg/mL (≈ 44 µM) | MIC [18]: 4 µg/mL

SMILES: CCCCCCCCCC[C@H](CC(=O)O[C@H]1CN(C)[C@@H]([C@@H](O[C@@H]2O[C@H](CN)[C@@H](O)[C@H]2O)[C@H]2O[C@@H](n3ccc(=O)[nH]c3=O)[C@H](O)[C@@H]2O)C(=O)N(C)[C@@H]1C(=O)O)OC(=O)C[C@H](C)CC(=O)O
MIC [19]: 1.2 µg/mL

SMILES: Cc1cn([C@H]2C[C@H](N=[N+]=[N-])[C@@H](CO)O2)c(=O)[nH]c1=O [ZIDOVUDINE]
MIC [20]: 10 µg/mL (≈ 37.4 µM)

SMILES: C[C@H](N)C(=O)N(C)[C@@H](C)[C@H](NC(=O)[C@H](C)NC(=O)N[C@@H](Cc1c[nH]c2ccccc12)C(=O)O)C(=O)N/C=C1/C[C@@H](O)[C@H](n2ccc(=O)[nH]c2=O)O1 [PACIDAMYCIN D]
MIC [17]: 32 µg/mL (≈ 45 µM)

SMILES: CSCC[C@H](NC(=O)NC(Cc1cccc(O)c1)C(=O)O)C(=O)NC(CN(C)C(=O)[C@@H](N)C(N)Cc1cccc(O)c1)C(=O)N/C=C1/C[C@@H](O)[C@H](N2CCC(=O)NC2=O)O1 (stereo partly specified)
ED50 [22]: > 0.1 mg/kg | MIC [23]: 1.5 µg/mL (≈ 1.75 µM)

More lines, now with the values ahead:

Ki [1]: 26 nM
SMILES: Nc1ncnc2c1ncn2[C@@H]1O[C@H](COS(=O)(=O)NC(=O)[C@@H](N)Cc2ccc(O)cc2)[C@@H](O)[C@H]1O

IC50 [2]: 17 nM | MIC [3]: 6.25 µg/mL (≈ 10.7 µM)
SMILES: CO[C@H]1[C@@H](O)[C@H](n2ccc(=O)[nH]c2=O)O[C@@H]1[C@@H](O[C@@H]1OC(C(=O)N[C@H]2CCC[C@@H](C)NC2=O)=C[C@@H](O)[C@H]1O)C(N)=O

Ki [4]: 490 nM
SMILES: Nc1ncnc2c1ncn2[C@@H]1O[C@H](COS(=O)(=O)NC(=O)[C@H]2CCCN2)[C@@H](O)[C@H]1O

inhibition [5]: 29%
SMILES: NC[C@H]1O[C@@H](OC[C@H]2O[C@@H](n3ccc(=O)[nH]c3=O)[C@H](OS(=O)(=O)O)C2(F)F)[C@H](O)[C@@H]1O

MIC [6]: 8 µg/mL (≈ 18.1 µM)
SMILES: CC1(C)O[C@@H]2[C@H](O1)[C@@H](Cn1cc(COc3ccccc3)nn1)O[C@H]2n1ccc(=O)[nH]c1=O

inhibition [21]: 97%
SMILES: C[C@H](N)C(=O)N(C)CCOC[C@H]1O[C@@H](n2ccc(=O)[nH]c2=O)[C@H](O)[C@@H]1O

Ki [4]: 4.3 nM
SMILES: Nc1ncnc2c1ncn2[C@@H]1O[C@H](COS(=O)(=O)NC(=O)[C@@H]2CCCN2)[C@@H](O)[C@H]1O
